Measured values reported in the supplement of paper PMC11061612.

Legend:
Experiment in all cases: combination Emax (second highest fraction inhibited in the dose matrix, 72 h); higher = more inhibition; extreme values may be limits of the assay
[1] = test system: CAL-33 (Oral Cavity Carcinoma)
Procedure, shortened: (§1)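 After 24 hours at 37°C and 5% CO2 in 1536-well plates, cells in DMEM/F12 or RPMI plus 10% FBS received two-drug dose matrices for 72 hours. Viability came from CellTiter-Glo 2.0 luminescence and was scaled as inhibition, anchored at 0 by vehicle wells and at 1 by blank wells. Combination Emax is taken as the second-highest inhibition in the matrix, and Bliss excess as the observed combination effect less EA + EB − EA·EB, with EA and EB the single-agent effects.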

[2] = test system: NCI-H209 (Small Cell Lung Carcinoma)
Procedure, shortened: as §1

[3] = test system: SW1573 (Lung Adenocarcinoma)
Procedure, shortened: as §1

[4] = test system: ALL-PO (B-Lymphoblastic Leukemia)
Procedure, shortened: as §1

[5] = test system: LCLC-97TM1 (Non-Small Cell Lung Carcinoma)
Procedure, shortened: as §1

[6] = test system: SAS (Oral Cavity Carcinoma)
Procedure, shortened: as §1

[7] = test system: YAPC (Pancreatic Carcinoma)
Procedure, shortened: as §1

[8] = test system: EW-11 (Ewing's Sarcoma)
Procedure, shortened: as §1

[9] = test system: TGBC1TKB (Biliary Tract Carcinoma)
Procedure, shortened: as §1

[10] = test system: NCI-H1568 (Lung Adenocarcinoma)
Procedure, shortened: as §1

[11] = test system: WSU-NHL (B-Cell Non-Hodgkin's Lymphoma)
Procedure, shortened: as §1

[12] = test system: NCI-H524 (Small Cell Lung Carcinoma)
Procedure, shortened: as §1

[13] = test system: HH (T-Cell Non-Hodgkin's Lymphoma)
Procedure, shortened: as §1

[14] = test system: Hs-746T (Gastric Carcinoma)
Procedure, shortened: as §1

[15] = test system: A673 (Ewing's Sarcoma)
Procedure, shortened: as §1

[16] = test system: NUGC-4 (Gastric Carcinoma)
Procedure, shortened: as §1

[17] = test system: SNU-449 (Hepatocellular Carcinoma)
Procedure, shortened: as §1

[18] = test system: HeLa (Cervical Carcinoma)
Procedure, shortened: as §1

[19] = test system: BPH-1 (Non-Cancerous)
Procedure, shortened: as §1

[20] = test system: FTC-133 (Thyroid Gland Carcinoma)
Procedure, shortened: as §1

CC1(C)CCC(CN2CCN(c3ccc(C(=O)NS(=O)(=O)c4ccc(NCC5CCOCC5)c([N+](=O)[O-])c4)c(Oc4cnc5[nH]ccc5c4)c3)CC2)=C(c2ccc(Cl)cc2)C1 [Venetoclax] + Cn1cnc2c(F)c(Nc3ccc(Br)cc3Cl)c(C(=O)NOCCO)cc21 [Selumetinib] (first compound max 1 µM, 7x7, partner max 3 µM)
combination Emax [1]: 0.266
combination Emax [2]: 0.436
combination Emax [3]: 0.0752
combination Emax [4]: 0.538
combination Emax [5]: 0.458
combination Emax [6]: 0.368
combination Emax [7]: 0.145
combination Emax [8]: 0.451
combination Emax [9]: 0.167
combination Emax [10]: 0.0499
combination Emax [11]: 0.745
combination Emax [12]: 0.113
combination Emax [13]: 0.132
combination Emax [14]: 0.242
combination Emax [15]: 0.65
combination Emax [16]: 0.499
combination Emax [17]: 0.109
combination Emax [18]: 0.103
combination Emax [19]: 0.572
combination Emax [20]: 0.133
